Experimental data from patent US7118895B2, “Process for producing aglycon by using diglycosidase and flavor-improved food containing the aglycon and converting agent to be used in the process” (Amano Enzyme Inc., priority 2000, dated 2006).

System: Crude diglycosidase
Test: Examination of substrate concentration in the conversion into isoflavone aglycons by diglycosidase using soybean materials;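 further: percent of the isoflavone family total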
Format: biochemical, Penicillium multicolor IAM7153
Summary of the method: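 Soybean materials (roasted soy flour, soymilk, defatted soybean, concentrated soy protein) at 2–30% (w/v) in 20 mM acetate pH 4.0 were reacted with crude diglycosidase at 55° C with shaking; enzyme solution added was 1.88 AU/mL. Samples taken at 0, 1, 3 and 6 h were ethanol-extracted and analyzed by HPLC.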

- Decomposition efficiency: ratio of each glycoside/aglycon within its isoflavone family (concentrated soybean protein, substrate concentration 2%, heat treatment of enzyme no, reaction time 0 h): 11.6%
- Decomposition efficiency: ratio of each glycoside/aglycon within its isoflavone family (concentrated soybean protein, substrate concentration 2%, heat treatment of enzyme no, reaction time 1 h): 85.3%
- Decomposition efficiency: ratio of each glycoside/aglycon within its isoflavone family (concentrated soybean protein, substrate concentration 2%, heat treatment of enzyme no, reaction time 3 h): 94.4%
- Decomposition efficiency: ratio of each glycoside/aglycon within its isoflavone family (concentrated soybean protein, substrate concentration 2%, heat treatment of enzyme no, reaction time 6 h): 100.0%
- Decomposition efficiency: ratio of each glycoside/aglycon within its isoflavone family (concentrated soybean protein, substrate concentration 2%, heat treatment of enzyme yes, reaction time 6 h): 11.2%
- Decomposition efficiency: ratio of each glycoside/aglycon within its isoflavone family (concentrated soybean protein, substrate concentration 5%, heat treatment of enzyme no, reaction time 0 h): 11.2%
- Decomposition efficiency: ratio of each glycoside/aglycon within its isoflavone family (concentrated soybean protein, substrate concentration 5%, heat treatment of enzyme no, reaction time 1 h): 72.4%
- Decomposition efficiency: ratio of each glycoside/aglycon within its isoflavone family (concentrated soybean protein, substrate concentration 5%, heat treatment of enzyme no, reaction time 3 h): 81.9%
- Decomposition efficiency: ratio of each glycoside/aglycon within its isoflavone family (concentrated soybean protein, substrate concentration 5%, heat treatment of enzyme no, reaction time 6 h): 87.4%
- Decomposition efficiency: ratio of each glycoside/aglycon within its isoflavone family (concentrated soybean protein, substrate concentration 5%, heat treatment of enzyme yes, reaction time 6 h): 11.3%
- Decomposition efficiency: ratio of each glycoside/aglycon within its isoflavone family (concentrated soybean protein, substrate concentration 10%, heat treatment of enzyme no, reaction time 0 h): 11.0%
- Decomposition efficiency: ratio of each glycoside/aglycon within its isoflavone family (concentrated soybean protein, substrate concentration 10%, heat treatment of enzyme no, reaction time 1 h): 66.8%
- Decomposition efficiency: ratio of each glycoside/aglycon within its isoflavone family (concentrated soybean protein, substrate concentration 10%, heat treatment of enzyme no, reaction time 3 h): 73.5%
- Decomposition efficiency: ratio of each glycoside/aglycon within its isoflavone family (concentrated soybean protein, substrate concentration 10%, heat treatment of enzyme no, reaction time 6 h): 75.8%
- Decomposition efficiency: ratio of each glycoside/aglycon within its isoflavone family (concentrated soybean protein, substrate concentration 10%, heat treatment of enzyme yes, reaction time 6 h): 11.1%
- Decomposition efficiency: ratio of each glycoside/aglycon within its isoflavone family (concentrated soybean protein, substrate concentration 20%, heat treatment of enzyme no, reaction time 0 h): 10.8%
- Decomposition efficiency: ratio of each glycoside/aglycon within its isoflavone family (concentrated soybean protein, substrate concentration 20%, heat treatment of enzyme no, reaction time 1 h): 51.2%
- Decomposition efficiency: ratio of each glycoside/aglycon within its isoflavone family (concentrated soybean protein, substrate concentration 20%, heat treatment of enzyme no, reaction time 3 h): 66.2%
- Decomposition efficiency: ratio of each glycoside/aglycon within its isoflavone family (concentrated soybean protein, substrate concentration 20%, heat treatment of enzyme no, reaction time 6 h): 69.2%
- Decomposition efficiency: ratio of each glycoside/aglycon within its isoflavone family (concentrated soybean protein, substrate concentration 20%, heat treatment of enzyme yes, reaction time 6 h): 11.1%
- Decomposition efficiency: ratio of each glycoside/aglycon within its isoflavone family (concentrated soybean protein, substrate concentration 30%, heat treatment of enzyme no, reaction time 0 h): 8.2%
- Decomposition efficiency: ratio of each glycoside/aglycon within its isoflavone family (concentrated soybean protein, substrate concentration 30%, heat treatment of enzyme no, reaction time 1 h): 61.5%
- Decomposition efficiency: ratio of each glycoside/aglycon within its isoflavone family (concentrated soybean protein, substrate concentration 30%, heat treatment of enzyme no, reaction time 3 h): 68.9%
- Decomposition efficiency: ratio of each glycoside/aglycon within its isoflavone family (concentrated soybean protein, substrate concentration 30%, heat treatment of enzyme no, reaction time 6 h): 71.4%
- Decomposition efficiency: ratio of each glycoside/aglycon within its isoflavone family (concentrated soybean protein, substrate concentration 30%, heat treatment of enzyme yes, reaction time 6 h): 8.2%
- Decomposition efficiency: ratio of each glycoside/aglycon within its isoflavone family (defatted soybean, substrate concentration 2%, heat treatment of enzyme no, reaction time 0 h): not detected
- Decomposition efficiency: ratio of each glycoside/aglycon within its isoflavone family (defatted soybean, substrate concentration 2%, heat treatment of enzyme no, reaction time 1 h): not detected
- Decomposition efficiency: ratio of each glycoside/aglycon within its isoflavone family (defatted soybean, substrate concentration 2%, heat treatment of enzyme no, reaction time 3 h): not detected
- Decomposition efficiency: ratio of each glycoside/aglycon within its isoflavone family (defatted soybean, substrate concentration 2%, heat treatment of enzyme no, reaction time 6 h): not detected
- Decomposition efficiency: ratio of each glycoside/aglycon within its isoflavone family (defatted soybean, substrate concentration 2%, heat treatment of enzyme yes, reaction time 6 h): not detected
- Decomposition efficiency: ratio of each glycoside/aglycon within its isoflavone family (defatted soybean, substrate concentration 5%, heat treatment of enzyme no, reaction time 0 h): 41.6%
- Decomposition efficiency: ratio of each glycoside/aglycon within its isoflavone family (defatted soybean, substrate concentration 5%, heat treatment of enzyme no, reaction time 1 h): 58.4%
- Decomposition efficiency: ratio of each glycoside/aglycon within its isoflavone family (defatted soybean, substrate concentration 5%, heat treatment of enzyme no, reaction time 3 h): 68.2%
- Decomposition efficiency: ratio of each glycoside/aglycon within its isoflavone family (defatted soybean, substrate concentration 5%, heat treatment of enzyme no, reaction time 6 h): 80.5%
- Decomposition efficiency: ratio of each glycoside/aglycon within its isoflavone family (defatted soybean, substrate concentration 5%, heat treatment of enzyme yes, reaction time 6 h): 41.5%
- Decomposition efficiency: ratio of each glycoside/aglycon within its isoflavone family (defatted soybean, substrate concentration 10%, heat treatment of enzyme no, reaction time 0 h): 47.0%
- Decomposition efficiency: ratio of each glycoside/aglycon within its isoflavone family (defatted soybean, substrate concentration 10%, heat treatment of enzyme no, reaction time 1 h): 45.3%
- Decomposition efficiency: ratio of each glycoside/aglycon within its isoflavone family (defatted soybean, substrate concentration 10%, heat treatment of enzyme no, reaction time 3 h): 63.4%
- Decomposition efficiency: ratio of each glycoside/aglycon within its isoflavone family (defatted soybean, substrate concentration 10%, heat treatment of enzyme no, reaction time 6 h): 72.1%
- Decomposition efficiency: ratio of each glycoside/aglycon within its isoflavone family (defatted soybean, substrate concentration 10%, heat treatment of enzyme yes, reaction time 6 h): 42.4%
- Decomposition efficiency: ratio of each glycoside/aglycon within its isoflavone family (roasted soy flour, substrate concentration 2%, heat treatment of enzyme no, reaction time 0 h): 16.2%
- Decomposition efficiency: ratio of each glycoside/aglycon within its isoflavone family (roasted soy flour, substrate concentration 2%, heat treatment of enzyme no, reaction time 1 h): 100.0%
- Decomposition efficiency: ratio of each glycoside/aglycon within its isoflavone family (roasted soy flour, substrate concentration 2%, heat treatment of enzyme no, reaction time 3 h): 100.0%
- Decomposition efficiency: ratio of each glycoside/aglycon within its isoflavone family (roasted soy flour, substrate concentration 2%, heat treatment of enzyme no, reaction time 6 h): 100.0%
- Decomposition efficiency: ratio of each glycoside/aglycon within its isoflavone family (roasted soy flour, substrate concentration 2%, heat treatment of enzyme yes, reaction time 6 h): 12.2%
- Decomposition efficiency: ratio of each glycoside/aglycon within its isoflavone family (roasted soy flour, substrate concentration 5%, heat treatment of enzyme no, reaction time 0 h): 11.4%
- Decomposition efficiency: ratio of each glycoside/aglycon within its isoflavone family (roasted soy flour, substrate concentration 5%, heat treatment of enzyme no, reaction time 1 h): 88.2%
- Decomposition efficiency: ratio of each glycoside/aglycon within its isoflavone family (roasted soy flour, substrate concentration 5%, heat treatment of enzyme no, reaction time 3 h): 92.8%
- Decomposition efficiency: ratio of each glycoside/aglycon within its isoflavone family (roasted soy flour, substrate concentration 5%, heat treatment of enzyme no, reaction time 6 h): 100.0%
- Decomposition efficiency: ratio of each glycoside/aglycon within its isoflavone family (roasted soy flour, substrate concentration 5%, heat treatment of enzyme yes, reaction time 6 h): 11.4%
- Decomposition efficiency: ratio of each glycoside/aglycon within its isoflavone family (roasted soy flour, substrate concentration 10%, heat treatment of enzyme no, reaction time 0 h): 5.5%
- Decomposition efficiency: ratio of each glycoside/aglycon within its isoflavone family (roasted soy flour, substrate concentration 10%, heat treatment of enzyme no, reaction time 1 h): 83.3%
- Decomposition efficiency: ratio of each glycoside/aglycon within its isoflavone family (roasted soy flour, substrate concentration 10%, heat treatment of enzyme no, reaction time 3 h): 90.3%
- Decomposition efficiency: ratio of each glycoside/aglycon within its isoflavone family (roasted soy flour, substrate concentration 10%, heat treatment of enzyme no, reaction time 6 h): 100.0%
- Decomposition efficiency: ratio of each glycoside/aglycon within its isoflavone family (roasted soy flour, substrate concentration 10%, heat treatment of enzyme yes, reaction time 6 h): 9.9%
- Decomposition efficiency: ratio of each glycoside/aglycon within its isoflavone family (roasted soy flour, substrate concentration 20%, heat treatment of enzyme no, reaction time 0 h): 8.6%
- Decomposition efficiency: ratio of each glycoside/aglycon within its isoflavone family (roasted soy flour, substrate concentration 20%, heat treatment of enzyme no, reaction time 1 h): 77.1%
- Decomposition efficiency: ratio of each glycoside/aglycon within its isoflavone family (roasted soy flour, substrate concentration 20%, heat treatment of enzyme no, reaction time 3 h): 86.2%
- Decomposition efficiency: ratio of each glycoside/aglycon within its isoflavone family (roasted soy flour, substrate concentration 20%, heat treatment of enzyme no, reaction time 6 h): 90.0%
- Decomposition efficiency: ratio of each glycoside/aglycon within its isoflavone family (roasted soy flour, substrate concentration 20%, heat treatment of enzyme yes, reaction time 6 h): 9.1%
- Decomposition efficiency: ratio of each glycoside/aglycon within its isoflavone family (roasted soy flour, substrate concentration 30%, heat treatment of enzyme no, reaction time 0 h): 8.8%
- Decomposition efficiency: ratio of each glycoside/aglycon within its isoflavone family (roasted soy flour, substrate concentration 30%, heat treatment of enzyme no, reaction time 1 h): 71.6%
- Decomposition efficiency: ratio of each glycoside/aglycon within its isoflavone family (roasted soy flour, substrate concentration 30%, heat treatment of enzyme no, reaction time 3 h): 75.6%
- Decomposition efficiency: ratio of each glycoside/aglycon within its isoflavone family (roasted soy flour, substrate concentration 30%, heat treatment of enzyme no, reaction time 6 h): 86.3%
- Decomposition efficiency: ratio of each glycoside/aglycon within its isoflavone family (roasted soy flour, substrate concentration 30%, heat treatment of enzyme yes, reaction time 6 h): 8.7%
- Decomposition efficiency: ratio of each glycoside/aglycon within its isoflavone family (soymilk, substrate concentration 2%, heat treatment of enzyme no, reaction time 0 h): not detected
- Decomposition efficiency: ratio of each glycoside/aglycon within its isoflavone family (soymilk, substrate concentration 2%, heat treatment of enzyme no, reaction time 1 h): 100.0%
- Decomposition efficiency: ratio of each glycoside/aglycon within its isoflavone family (soymilk, substrate concentration 2%, heat treatment of enzyme no, reaction time 3 h): 100.0%
- Decomposition efficiency: ratio of each glycoside/aglycon within its isoflavone family (soymilk, substrate concentration 2%, heat treatment of enzyme no, reaction time 6 h): 100.0%
- Decomposition efficiency: ratio of each glycoside/aglycon within its isoflavone family (soymilk, substrate concentration 2%, heat treatment of enzyme yes, reaction time 6 h): not detected
- Decomposition efficiency: ratio of each glycoside/aglycon within its isoflavone family (soymilk, substrate concentration 5%, heat treatment of enzyme no, reaction time 0 h): not detected
- Decomposition efficiency: ratio of each glycoside/aglycon within its isoflavone family (soymilk, substrate concentration 5%, heat treatment of enzyme no, reaction time 1 h): 75.4%
- Decomposition efficiency: ratio of each glycoside/aglycon within its isoflavone family (soymilk, substrate concentration 5%, heat treatment of enzyme no, reaction time 3 h): 92.5%
- Decomposition efficiency: ratio of each glycoside/aglycon within its isoflavone family (soymilk, substrate concentration 5%, heat treatment of enzyme no, reaction time 6 h): 100.0%
- Decomposition efficiency: ratio of each glycoside/aglycon within its isoflavone family (soymilk, substrate concentration 5%, heat treatment of enzyme yes, reaction time 6 h): not detected
- Decomposition efficiency: ratio of each glycoside/aglycon within its isoflavone family (soymilk, substrate concentration 10%, heat treatment of enzyme no, reaction time 0 h): 6.4%
- Decomposition efficiency: ratio of each glycoside/aglycon within its isoflavone family (soymilk, substrate concentration 10%, heat treatment of enzyme no, reaction time 1 h): 73.6%
- Decomposition efficiency: ratio of each glycoside/aglycon within its isoflavone family (soymilk, substrate concentration 10%, heat treatment of enzyme no, reaction time 3 h): 89.5%
- Decomposition efficiency: ratio of each glycoside/aglycon within its isoflavone family (soymilk, substrate concentration 10%, heat treatment of enzyme no, reaction time 6 h): 95.8%
- Decomposition efficiency: ratio of each glycoside/aglycon within its isoflavone family (soymilk, substrate concentration 10%, heat treatment of enzyme yes, reaction time 6 h): 6.2%
- Decomposition efficiency: ratio of each glycoside/aglycon within its isoflavone family (soymilk, substrate concentration 20%, heat treatment of enzyme no, reaction time 0 h): 6.3%
- Decomposition efficiency: ratio of each glycoside/aglycon within its isoflavone family (soymilk, substrate concentration 20%, heat treatment of enzyme no, reaction time 1 h): 72.2%
- Decomposition efficiency: ratio of each glycoside/aglycon within its isoflavone family (soymilk, substrate concentration 20%, heat treatment of enzyme no, reaction time 3 h): 90.6%
- Decomposition efficiency: ratio of each glycoside/aglycon within its isoflavone family (soymilk, substrate concentration 20%, heat treatment of enzyme no, reaction time 6 h): 94.1%
- Decomposition efficiency: ratio of each glycoside/aglycon within its isoflavone family (soymilk, substrate concentration 20%, heat treatment of enzyme yes, reaction time 6 h): 5.7%
- Decomposition efficiency: ratio of each glycoside/aglycon within its isoflavone family (soymilk, substrate concentration 30%, heat treatment of enzyme no, reaction time 0 h): 6.1%
- Decomposition efficiency: ratio of each glycoside/aglycon within its isoflavone family (soymilk, substrate concentration 30%, heat treatment of enzyme no, reaction time 1 h): 66.9%
- Decomposition efficiency: ratio of each glycoside/aglycon within its isoflavone family (soymilk, substrate concentration 30%, heat treatment of enzyme no, reaction time 3 h): 84.1%
- Decomposition efficiency: ratio of each glycoside/aglycon within its isoflavone family (soymilk, substrate concentration 30%, heat treatment of enzyme no, reaction time 6 h): 92.3%
- Decomposition efficiency: ratio of each glycoside/aglycon within its isoflavone family (soymilk, substrate concentration 30%, heat treatment of enzyme yes, reaction time 6 h): 6.7%
SMILES: COc1cc2c(=O)c(-c3ccc(O)cc3)coc2cc1O [glycitein]
